Assay type in all cases: cell-based, human
Assay [1] relates to CD133+ glioma stem cells. Nature of the assay: Caspase-Glo 3/7 assay, relative caspase 3/7 activities. The procedure:
FIG. 2 is a series of graphs illustrating that γ-secretase inhibitors enhance radiation-induced cell death in glioma stem cells. (A) T4302 CD 133+ cells were pre-treated with DAPT or L685,458 for 4 hours and irradiated at 3 Gy. Percentage of dead cells was determined by trypan blue exclusion assay at 48 hours after radiation exposure. (B) T4302 CD 133+ cells were treated with GSIs ±radiation as indicated. Cells were then plated at 3000 cells per well in 96-well plates. Relative caspase 3/7 activities were determined by normalizing caspase activities to the corresponding cell titers. (C) T4302 CD 133+ cells were treated as described in FIG. 2A. 24 or 48 hours after radiation exposure, cells were labeled with FITC-conjugated Annexin V staining kit (BD Sciences) according to manufacturer's instructions and analyzed by flow cytometry. […] Relative caspase 3/7 activities were determined at 72 hours after radiation. (E) T4302 CD133+ cells were pre-treated with DAPT at indicated concentrations for 4 hours and irradiated at 3 Gy. Relative caspase activities were determined at 48 or 72 hours after radiation. *: p<0.01 by Student's t-test; #: p<0.01 by one-way ANOVA.
The caspase activities at 48 or 72 hours after radiation were measured using the Caspase-Glo 3/7 assay (Promega) according to the manufacturer's instructions. The caspase activities were normalized to the corresponding cell titers to obtain the relative caspase 3/7 activities.

In assay [2] the test system is CD133+ glioma stem cells. Nature of the assay: Clonogenic survival assay (neurosphere formation). The note with it: T4302, 3-Gy radiation. The source says: FIG. 1 is a series of graphs illustrating that γ-secretase inhibitors reduce cell growth and clonogenic survival of glioma stem cells following radiation. (A) T4302 CD133+ glioma stem cells were transfected with a Notch-responsive luciferase reporter (RBP-JK reporter) pre-mixed with the vector directing constitutive expression of Renilla luciferase. Cells were left unirradiated or irradiated at 3 Gy, and were then collected to measure luciferase activities at time points as indicated. […] The relative mRNA levels of Hes2 were determined by quantitative real-time PCR at the time points as indicated. […] Total viable cell numbers were then determined by the CellTiter-Glo Luminescent Cell Viability Assay (Promega) for the following five days. […] Cells were then plated to form neurospheres, and the surviving fractions were determined as described in methods. […] (F,G) Neurosphere formation of T3359 and T4105 CD 133+ cells treated with GSIs alone, 3-Gy radiation alone, or the combination was determined as described in FIG. 1E. *: p<0.05 by Student's t-test; #: p<0.001 by one-way ANOVA.
To measure clonogenic survival, CD133+ glioma cells were plated in 24-well plates at 50 cells per well for the sham-irradiated groups, 100 cells per well for cells irradiated at 1 Gy, or 500 cells per well for cells irradiated at 2 or 3 Gy. […] Fourteen days after plating, neurospheres containing more than 50 cells were scored. […]

The test system of another assay is T4302 CD133+ cells. Nature of the assay: Trypan blue exclusion assay. The note with it: two days after 3-Gy radiation. The procedure: FIG. 2 is a series of graphs illustrating that γ-secretase inhibitors enhance radiation-induced cell death in glioma stem cells. (A) T4302 CD 133+ cells were pre-treated with DAPT or L685,458 for 4 hours and irradiated at 3 Gy. Percentage of dead cells was determined by trypan blue exclusion assay at 48 hours after radiation exposure. (B) T4302 CD 133+ cells were treated with GSIs ±radiation as indicated. Cells were then plated at 3000 cells per well in 96-well plates. Relative caspase 3/7 activities were determined by normalizing caspase activities to the corresponding cell titers. (C) T4302 CD 133+ cells were treated as described in FIG. 2A. 24 or 48 hours after radiation exposure, cells were labeled with FITC-conjugated Annexin V staining kit (BD Sciences) according to manufacturer's instructions and analyzed by flow cytometry. (D) T4302 CD 133+ cells were pre-treated with 2 μM DAPT for 4 hours, and were left unirradiated or irradiated at 1, 2 or 3 Gy. Relative caspase 3/7 activities were determined at 72 hours after radiation. (E) T4302 CD133+ cells were pre-treated with DAPT at indicated concentrations for 4 hours and irradiated at 3 Gy. Relative caspase activities were determined at 48 or 72 hours after radiation. *: p<0.01 by Student's t-test; #: p<0.01 by one-way ANOVA.

From patent US20110059114A1, “Compositions and Methods for the Treatment of Radioresistant Glioma Stem Cells” (DUKE UNIVERSITY, priority 2009, published 2011) come the findings set out here.

The structures appear in SMILES notation.

Turning to `CC(NC(=O)Cc1cc(F)cc(F)c1)C(=O)NC(C(=O)OC(C)(C)C)c1ccccc1` [DAPT, N-[N-(3,5-Difluorophenacetyl-L-alanyl)]-S-phenylglycine t-Butyl Ester], in the assay with CD133+ glioma stem cells [1] (200 nM DAPT, 3 Gy), the radiosensitizing effect result is reported as “still being effective”. For the same molecule, the radiation-induced cell death result in the assay with CD133+ glioma stem cells [1] (2 μM DAPT added 24 hours after radiation, T4105 or T4302 CD133+ cells) is reported as “increased radiation-induced cell death”. Also, in the assay on CD133+ glioma stem cells [1] (2 μM, radiation 1, 2 or 3 Gy, 72 hours), the “radiation-induced cell death (caspase 3/7)” value is recorded as “enhanced radiation-induced cell death”. Besides, the “radiosensitizing effects, dependence on concentration” value in the assay on CD133+ glioma stem cells [1] (3 Gy, 48 or 72 hours after radiation) is listed as “concentration-dependent effect”. Also, the “radiation-induced cell death of cells infected with control lentivirus” value in the assay on CD133+ glioma stem cells [1] (irradiated, T4302 CD133+) is “sensitive to DAPT”. Further, the “clonogenic survival of irradiated NICD2-expressing cells” value with CD133+ glioma stem cells [2] is on record as “did not significantly alter”. Also, the dead cells with T4302 CD133+ cells was determined as 60%.
